Data taken from ChEMBL document CHEMBL5143515, “Identification of new halogen-containing 2,4-diphenyl indenopyridin-5-one derivative as a boosting agent for the anticancer responses of clinically available topoisomerase inhibitors” (Eur J Med Chem, 2022).
Active and inactive are the calls of the source. The rule behind the calls is not given here.

Assays:
[1] = biological target: DNA topoisomerase 2-alpha (Homo sapiens) (UniProt P11388); experiment: Inhibition of recombinant human topoisomerase 2alpha assessed as relaxation of supercoiled plasmid pBR322 DNA at 100 uM by agarose gel electrophoresis (reference value: 82.2%)
Chain of DNA topoisomerase 2-alpha (Homo sapiens) (P11388 whole entry): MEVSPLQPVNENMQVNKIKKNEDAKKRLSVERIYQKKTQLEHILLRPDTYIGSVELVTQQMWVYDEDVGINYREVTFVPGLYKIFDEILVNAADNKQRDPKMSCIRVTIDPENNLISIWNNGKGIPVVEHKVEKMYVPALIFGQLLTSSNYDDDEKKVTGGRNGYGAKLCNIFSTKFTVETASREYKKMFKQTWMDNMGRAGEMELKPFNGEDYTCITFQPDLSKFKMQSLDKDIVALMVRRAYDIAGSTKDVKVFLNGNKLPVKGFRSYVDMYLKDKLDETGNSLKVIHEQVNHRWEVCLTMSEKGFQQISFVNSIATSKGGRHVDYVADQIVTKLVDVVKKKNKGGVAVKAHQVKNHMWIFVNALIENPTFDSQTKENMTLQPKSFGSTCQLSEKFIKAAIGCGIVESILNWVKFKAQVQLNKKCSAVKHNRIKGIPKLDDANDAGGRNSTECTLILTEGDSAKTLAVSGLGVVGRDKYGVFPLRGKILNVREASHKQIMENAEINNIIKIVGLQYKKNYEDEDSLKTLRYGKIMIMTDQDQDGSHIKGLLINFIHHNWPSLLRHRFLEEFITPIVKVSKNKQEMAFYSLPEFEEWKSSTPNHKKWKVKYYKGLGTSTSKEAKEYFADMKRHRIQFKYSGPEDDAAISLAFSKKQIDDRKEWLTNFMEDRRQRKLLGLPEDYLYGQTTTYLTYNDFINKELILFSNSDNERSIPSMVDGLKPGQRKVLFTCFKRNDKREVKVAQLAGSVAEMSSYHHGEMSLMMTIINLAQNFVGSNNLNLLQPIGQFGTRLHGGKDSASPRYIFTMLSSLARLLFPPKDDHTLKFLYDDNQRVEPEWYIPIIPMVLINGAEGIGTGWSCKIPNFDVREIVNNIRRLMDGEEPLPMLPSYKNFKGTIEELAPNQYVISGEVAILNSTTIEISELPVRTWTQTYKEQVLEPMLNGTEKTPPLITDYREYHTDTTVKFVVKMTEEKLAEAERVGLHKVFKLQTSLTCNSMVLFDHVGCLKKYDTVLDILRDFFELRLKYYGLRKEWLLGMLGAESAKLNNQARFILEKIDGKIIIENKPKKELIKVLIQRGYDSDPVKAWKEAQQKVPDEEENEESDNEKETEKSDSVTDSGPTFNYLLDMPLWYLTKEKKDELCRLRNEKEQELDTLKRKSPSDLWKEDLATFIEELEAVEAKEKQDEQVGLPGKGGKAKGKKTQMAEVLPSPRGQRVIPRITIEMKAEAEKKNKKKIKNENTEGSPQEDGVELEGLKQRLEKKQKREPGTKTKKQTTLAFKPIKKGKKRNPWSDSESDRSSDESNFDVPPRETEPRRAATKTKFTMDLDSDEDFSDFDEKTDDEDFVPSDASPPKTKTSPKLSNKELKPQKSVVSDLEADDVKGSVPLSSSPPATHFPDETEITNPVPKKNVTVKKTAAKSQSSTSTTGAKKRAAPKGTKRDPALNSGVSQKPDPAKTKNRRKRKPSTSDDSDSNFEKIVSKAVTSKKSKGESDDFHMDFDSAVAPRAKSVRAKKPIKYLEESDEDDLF

HeLa = experiment: Antiproliferative activity against human HeLa cells after 72 hrs by EZ-Cytox colorimetric assay; assay type: functional, cell-based
HCT-15 [2] = experiment: Induction of apoptosis in human HCT-15 cells assessed as change in c-caspase 7 level at 2 to 5 uM in presence of 1 nM camptothecin and measured by Western blot analysis; assay type: functional, cell-based; conditions: dose 2-5 µM
HCT-15 [3] = experiment: Antitumor activity against human HCT-15 cells xenografted in female BALB/c nude mouse assessed as tumor growth retardation at 4 mg/kg, ip administered every day for 6 days in combination with etoposide at 2 mg/kg, ip administered every day for 6 days; assay type: functional, organism-based; conditions: time 6.0 day
HCT-15 [4] = experiment: Antitumor activity against human HCT-15 cells xenografted in female BALB/c nude mouse assessed as decrease in Ki67 expression at 4 mg/kg, ip administered every day for 6 days in combination with etoposide at 2 mg/kg, ip administered every day for 6 days measured by immunohistochemistry analysis; assay type: functional, organism-based; conditions: time 6.0 day
[5] = Genotoxicity in human HCT-15 cells assessed as production of gamma-H2AX at 2 to 5 uM and measured by western blot analysis; assay type: toxicity, cell-based; conditions: hct-15, 5 µM, dose 2-5 µM
[6] = Genotoxicity in human HCT-15 cells assessed as production of Ub1-gamma-H2AX at 2 to 5 uM and measured in presence of 1 nM camptothecin by western blot analysis; assay type: toxicity, cell-based; conditions: hct-15, 5 µM, dose 2-5 µM
[7] = Genotoxicity in human HCT-15 cells assessed as production of fragmented DNA tails at 2 to 5 uM and measured in presence of 1 nM camptothecin by comet assay; assay type: toxicity, cell-based; conditions: hct-15, 5 µM, dose 2-5 µM
[8] = Toxicity in mouse assessed as reduction in number of absolute neutrophil count at 4 mg/kg in presence of 2 mg/kg etoposide; assay type: organism-based; conditions: in vivo
[9] = Toxicity in mouse assessed as reduction in hemoglobin level at 4 mg/kg; assay type: organism-based; conditions: in vivo
[10] = Toxicity in mouse assessed as reduction in number of red blood cells at 4 mg/kg administered in combination with 2 mg/kg etoposide; assay type: organism-based; conditions: in vivo
[11] = Toxicity in mouse assessed as increase in d red cell distribution width at 4 mg/kg administered in combination with 2 mg/kg etoposide; assay type: organism-based; conditions: in vivo

O=C1c2ccccc2-c2nc(-c3ccc(Br)cc3)cc(-c3ccccc3)c21
inhibition [1]: 85.8%
IC50 (HeLa): > 50 µM
Activity (HCT-15 [2]): Active
Activity (HCT-15 [3]): Active
Activity (HCT-15 [4]): Active
Activity [5]: Non-Toxic
Activity [6]: Non-Toxic
Activity [7]: Non-Toxic
Activity [8]: Non-Toxic
Activity [9]: Non-Toxic
Activity [10]: Non-Toxic
Activity [11]: Non-Toxic
